One data set has as its target T1, hTRPM8 (Homo sapiens, UniProt Q7Z2W7).
T1 construct: expressed in transfected cells; host or cells: HEK293 (transient, Lipofectamine 3000)
Nature of the data set: Whole-cell patch-clamp of WS-12-evoked currents in HEK293 cells expressing hTRPM8. In kind it is cell-based. The source says: We first used patch‐clamp to investigate the potency and blockade mechanism of compound 23 inhibiting WS‐12 evoked ionic currents in hTRPM8‐HEK293 cells. […] This blockade activity was reversible as virtually all WS‐12‐evoked ionic current could be recovered upon washout (Fig. 3A, bottom panel), thus preventing a use‐dependent side effect.
To unveil the underlying mechanism of channel blockade (competitive vs noncompetitive) we evaluated the effect of the α‐acyloxy carboxamide 23 on WS‐12 activating potency. For this purpose, we obtained the WS‐12 dose response in the absence and presence of 80 nM compound 23 (corresponding to its IC50 value).
For this purpose, we run 100 ms voltage ramps from −120 to 120 mV activated by WS‐12 in the absence and presence of 80 nM α‐acyloxy carboxamide 23.
(§1) Recording through patch‐clamp techniques was performed on HEK293 cells cultured in DMEM GlutaMax with 10% FBS and 1% P/S. The cell lines were authenticated following the standardization of STR Profiling guidelines (ANSI/ATCC ASN‐0002‐2022) using the CLA Identifier Plus PCR Amplification Kit (Thermo Fisher‐A44660) to analyze 16 highly variant human STRs. The cells were confirmed to be mycoplasma‐free. These cells were transiently transfected with plasmids encoding hTRPV1, hTRPM8, or hTRPA1 using Lipofectamine 3000. Transfected cells were seeded on 12 mm Ø glass coverslips treated with poly‐L‐lysine solution and recorded 2 days post‐transfection. The intracellular pipette solution included (in mM) 150 NaCl, 3 MgCl2, 5 EGTA, and 10 HEPES, pH 7.2 with CsOH, while the extracellular solution contained (in mM) 150 NaCl, 6 CsCl, 1 MgCl2, 1.5 CaCl2, 10 glucose, and 10 HEPES, pH 7.4 with NaOH. An EPC‐10 amplifier with Patchmaster software was used in whole‐cell experiments. Patch pipettes, created from thin‐wall borosilicate capillary glass tubing, were pulled with a Micropipette puller to a final resistance of 2–8 MΩ when filled with the internal solution. Recordings were acquired at 10 kHz and low‐pass filtered at 3 kHz, discarding recordings with leak currents > 200pA or series resistance > 20 MΩ. In voltage‐clamp recordings, cells were held at a constant potential, and the application of modulators was carried out using a gravity‐driven perfusion system. Total currents were normalized to the first current peak evoked by the activating stimuli. To study the effect of compound 23 on TRPM8 voltage dependence, a voltage step protocol from −120 to 120 mV was used with 100 ms steps of 20 mV from a holding potential at 0 mV. Leak currents were not subtracted, and conductance was calculated using the equation: G = I/(V − V r), where I is the measured ionic current, V is the applied voltage, and V r is the reversal potential that for the ionic conditions used was set to 0 mV.
Dose–response relationships for WS‐12 channel activation were normalized to the response of the channel to a saturating concentration of the agonist. Similarly, dose–response curves for blockade activity were normalized with respect to the response in the absence of the blocker. The experimental data were fitted to the Hill equation: Y=Bottom+Top‐Bottom/(1+10^ligand−LogIC50orLogEC50) using PRISM 9 software. Top was fixed to 100, as the unblocked response or the maximal response for WS‐12.
Background: The patch-clamp technique gives a direct electrical read-out from membranes.

Data set [1] in a line: Metabolic stability and metabolite profile in mouse liver microsomes (MLM). In kind it is in vitro ADME. The settings on record: phase I metabolites of compound 23 in MLM, LC-HRMS, estimated from total ion current. The method, then: Because of the lack of systemic activity of compound 23, we evaluated the in vitro plasmatic and hepatic metabolic stability. To this aim, compound 23 was exposed to mouse plasma and mouse liver microsome (MLM) fractions, and the residual substrate was measured after 1 h. Under these conditions, the residual substrate was about 97% and 90% in plasma and microsomes, respectively, denoting that this molecule suffers from mild hydrolysis of the ester group.
Metabolic biotransformation of compound 23 was investigated by tandem high‐resolution mass spectrometry using the software COMPOUND DISCOVERER 3.2™.
The standard incubation mixture (250 μL final volume) was carried out in a 50 mM Tris (tris[hydroxymethyl]aminomethane) buffer (pH 7.4) containing 150 mM KCl, […], 3.3 mM MgCl2, 1.3 mM NADPNa2, 3.3 mM glucose 6‐phosphate, 0.4 units·mL^−1 glucose 6‐phosphate dehydrogenase, acetonitrile as cosolvent (1% of total volume), and the substrate (50 μM). After pre‐equilibration of the mixture, an appropriate volume of MLM suspension was added to give a final protein concentration of 1.0 mg·mL^−1. The mixture was shaken for 60 min at 37 °C using a horizontal shaking thermostatic bath while protecting the samples from light. Control incubations were carried out without the presence of substrate, or NADPH regenerating system, or microsomes. Each incubation was stopped by the addition of 250 μL of ice‐cold acetonitrile, vortexed, and centrifuged at 13 000 r.p.m. for 5 min [68]. The supernatants were analyzed by LC‐UV and LC‐HRMS equipment (see Tables S1 and S2, Fig. S79 for full parameters setting in the Supporting Information).
The metabolic stability of the compound 23 was determined in vitro by measuring the residual peak area after incubation by LC‐UV analysis. Samples were further processed by LC‐HRMS equipment for metabolite profiling. Raw data files were processed using both XCALIBUR® and COMPOUND DISCOVERER 3.2® software (Thermo Scientific) using a customized workflow for the detection and identification of the expected and unknown metabolites (Fig. S80).

The target in data set [2] is T2, recombinant human TRPM8 stably expressed in HEK293 cells (hTRPM8) (Homo sapiens, UniProt Q7Z2W7).
T2 construct: expressed in transfected cells
In words: Ca2+ microfluorimetry screen for agonist/antagonist activity in hTRPM8-HEK293 cells. In kind it is cell-based. The settings on record: agonists vs WS-12, antagonists vs WS-12 response, read-out: Efficacy (percentage of maximal activation or blockade).

In data set [3] the target is T2, recombinant human TRPM8 stably expressed in HEK293 cells (hTRPM8). Described as above. In kind it is cell-based. The settings on record: for Activity (agonist/antagonist) / EC50: hTRPM8-HEK293; for Activity (agonist/antagonist): agonism = compound-induced Ca2+ influx, antagonism = modulation of WS-12-induced Ca2+ influx; for EC50: half of channel activation, N = 3; for EC50 / Hill coefficient: mean ± SD; for Hill coefficient: hTRPM8-HEK293 Ca2+ microfluorimetry dose-response. The text has this: We first evaluated the series of compounds 20–29 synthesized using the Passerini‐Adamantane reaction. All compounds were screened for channel agonism and antagonism on recombinant human TRPM8 stably expressed in HEK293 cells (hTRPM8‐HEK293) with Ca^2+ microfluorimetry. […] Compound‐induced TRPM8‐mediated Ca^2+ influx was confirmed using untransfected HEK293 cells and the channel blocker AMTB. […] The concentration of compounds to reach half of channel activation (EC50) or to block half‐channel activity evoked by WS‐12 (IC50) are reported in Table 1, along with the percentage of maximal activation or blockade (Efficacy).
Assays were conducted to assess the channel activity of the recombinant hTRPM8 stably expressed in HEK‐293 cells. HEK‐293‐hTRPM8 cells were cultured in a monolayer using a DMEM GlutaMax with 10% FBS and 1% P/S and maintained at 37 °C in 5% CO2. For experiments, cells were prepared and seeded at the indicated densities. To evaluate compound effectiveness against hTRPM8 activity, microfluorometry‐based calcium flux assays were performed using Fluo‐4 NW Ca^2+ dye and fluorescence detection. HEK cell lines expressing hTRPM8 were seeded in 96‐well plates and incubated with the dye‐loading solution. Ion channel activity was measured using a plate reader, and fluorescence intensity changes were recorded following the addition of vehicle, compound at varying concentrations, and antagonist (10 μM AMTB). Data analysis included calculating the Z‐factor for each assay and normalizing compound effects to […]. Data were analyzed to determine the concentration exerting half‐maximal inhibition (IC50) or activation (EC50) of agonist‐induced calcium elevation, using GRAPHPAD PRISM8® software (Boston, MA, USA). All experiments were conducted in triplicate, and results are presented as mean ± standard deviation.

The target in another data set is T3, hTRPA1 (Homo sapiens, UniProt O75762).
T3 construct: expressed in transfected cells; host or cells: HEK293 (transient, Lipofectamine 3000)
Nature of the data set: Whole-cell patch-clamp of AITC-evoked currents in HEK293 cells expressing hTRPA1. Conditions: 5 μM compound, 60 μM AITC, −60 mV. In kind it is cell-based. On the procedure: To evaluate receptor selectivity, we investigated the activity of compound 23 on recombinant hTRPV1 and hTRPA1 channels recombinantly expressed in HEK293 cells (Fig. 4). We choose these thermosensory channels because of their structural similarity and expression in peripheral nociceptive terminals. In addition, some ligand cross‐interaction within these channels has been reported.
as §1, with “Total currents were normalized to the first current peak evoked by the activating stimuli. To study the effect of compound 23 on TRPM8 voltage dependence, a voltage step protocol from −120 to 120 mV was used with 100 ms steps of 20 mV from a holding potential at 0 mV.” left out, “mV. […]” for “mV.”

For orientation: EC50 means the midpoint of the concentration-response curve. What is called Hill coefficient is the slope factor of the fitted curve.

T2 sequence (Q7Z2W7 whole entry): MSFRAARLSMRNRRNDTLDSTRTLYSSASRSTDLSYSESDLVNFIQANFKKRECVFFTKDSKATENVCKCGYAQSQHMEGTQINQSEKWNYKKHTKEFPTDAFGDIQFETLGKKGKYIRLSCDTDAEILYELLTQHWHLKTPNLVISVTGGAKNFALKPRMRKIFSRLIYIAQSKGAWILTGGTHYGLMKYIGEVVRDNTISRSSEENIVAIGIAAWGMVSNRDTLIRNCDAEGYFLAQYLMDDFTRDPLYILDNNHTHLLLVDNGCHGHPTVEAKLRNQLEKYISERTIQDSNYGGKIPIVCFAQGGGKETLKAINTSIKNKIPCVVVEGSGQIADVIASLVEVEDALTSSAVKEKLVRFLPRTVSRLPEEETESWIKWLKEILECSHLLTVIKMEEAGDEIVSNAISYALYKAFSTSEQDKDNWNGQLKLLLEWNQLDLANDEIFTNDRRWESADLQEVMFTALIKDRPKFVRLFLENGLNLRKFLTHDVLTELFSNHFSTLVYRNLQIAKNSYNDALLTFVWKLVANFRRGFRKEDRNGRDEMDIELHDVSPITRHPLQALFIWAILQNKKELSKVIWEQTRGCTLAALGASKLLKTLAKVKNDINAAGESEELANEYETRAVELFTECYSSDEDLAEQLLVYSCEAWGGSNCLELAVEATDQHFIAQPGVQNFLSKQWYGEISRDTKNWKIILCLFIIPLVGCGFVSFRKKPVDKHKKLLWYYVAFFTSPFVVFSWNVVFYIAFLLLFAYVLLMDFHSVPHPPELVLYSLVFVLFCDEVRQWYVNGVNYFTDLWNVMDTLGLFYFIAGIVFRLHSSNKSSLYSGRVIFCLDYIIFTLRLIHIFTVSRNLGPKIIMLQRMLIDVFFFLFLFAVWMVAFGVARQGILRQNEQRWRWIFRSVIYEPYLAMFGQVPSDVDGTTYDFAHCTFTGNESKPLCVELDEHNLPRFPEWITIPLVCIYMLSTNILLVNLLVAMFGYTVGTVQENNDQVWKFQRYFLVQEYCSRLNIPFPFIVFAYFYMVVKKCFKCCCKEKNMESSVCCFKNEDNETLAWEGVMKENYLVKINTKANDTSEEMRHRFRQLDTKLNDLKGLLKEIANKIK
T1 sequence (Q7Z2W7 whole entry): as above
T3 sequence (O75762 whole entry): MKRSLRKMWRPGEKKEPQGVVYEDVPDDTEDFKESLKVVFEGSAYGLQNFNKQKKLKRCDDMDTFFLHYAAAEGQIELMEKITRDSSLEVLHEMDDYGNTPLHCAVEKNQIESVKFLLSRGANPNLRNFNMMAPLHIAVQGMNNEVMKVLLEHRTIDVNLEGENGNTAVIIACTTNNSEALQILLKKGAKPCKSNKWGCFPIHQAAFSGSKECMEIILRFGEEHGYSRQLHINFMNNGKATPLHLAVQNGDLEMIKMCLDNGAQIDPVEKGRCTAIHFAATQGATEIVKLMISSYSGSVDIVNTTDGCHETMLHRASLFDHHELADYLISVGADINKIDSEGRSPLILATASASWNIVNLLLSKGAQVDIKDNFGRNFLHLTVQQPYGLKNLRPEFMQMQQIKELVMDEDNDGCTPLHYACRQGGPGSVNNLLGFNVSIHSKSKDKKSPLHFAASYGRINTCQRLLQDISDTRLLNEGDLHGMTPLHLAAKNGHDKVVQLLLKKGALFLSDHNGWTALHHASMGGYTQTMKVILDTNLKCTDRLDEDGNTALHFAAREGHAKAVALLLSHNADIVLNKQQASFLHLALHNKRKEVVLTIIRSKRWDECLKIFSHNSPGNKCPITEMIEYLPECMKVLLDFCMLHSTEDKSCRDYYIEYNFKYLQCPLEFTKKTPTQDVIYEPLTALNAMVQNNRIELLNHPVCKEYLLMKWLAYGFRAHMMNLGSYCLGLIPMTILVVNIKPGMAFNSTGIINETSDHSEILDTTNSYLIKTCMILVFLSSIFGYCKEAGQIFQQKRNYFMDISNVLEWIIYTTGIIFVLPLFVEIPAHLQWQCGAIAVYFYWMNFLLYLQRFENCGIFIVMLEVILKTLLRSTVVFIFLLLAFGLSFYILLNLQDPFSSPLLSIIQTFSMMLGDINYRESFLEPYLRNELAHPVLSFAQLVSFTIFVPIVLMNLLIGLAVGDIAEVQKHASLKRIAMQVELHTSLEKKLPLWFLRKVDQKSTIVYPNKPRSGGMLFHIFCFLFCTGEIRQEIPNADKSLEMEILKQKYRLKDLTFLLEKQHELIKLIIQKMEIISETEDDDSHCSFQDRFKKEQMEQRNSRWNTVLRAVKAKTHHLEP

Turning to `COc1ccc(NC(=O)[C@@H]2C[C@H](C)CC[C@H]2C(C)C)cc1` [WS‐12, (1R,2S,5R)‐N‐(4‐methoxyphenyl)‐5‐methyl‐2‐(propan‐2‐yl)cyclohexane‐1‐carboxamide, reference compound], the “WS‐12 Hill coefficient in the absence of compound 23” value on hTRPM8 (patch-clamp) stood at 1.17. For the same compound, on hTRPM8 (patch-clamp, 0.08 μM compound 23), the “WS‐12 Hill coefficient in the presence of compound 23” value came out at 0.95. Also, the EC50 at hTRPM8 (patch-clamp, n = 18, read-out: WS‐12 EC50 in the absence of compound 23) was found to be 3000 nM.

Take `Cc1cccc(COc2ccccc2C(=O)N(CCCN)Cc2cccs2)c1` [AMTB, N‐(3‐aminopropyl)‐2‐{[(3‐methylphenyl)methyl]oxy}(20)‐N‐(2‐thienylmethyl)benzamide, reference compound]: the “voltage dependency of channel blockade” value on hTRPM8 (voltage steps −120 to 120 mV, 0.08 μM compound 23, 10 μM AMTB) is recorded as “not voltage dependent”.

In the case of `O=C(CO)NC12CC3CC(CC(C3)C1)C2` [Compound M1a], the Metabolite relative abundancy in data set [1] is 18.7%.

On to `O=C(CN(C(=O)Cc1ccccc1)C1CC1)NC12CC3CC(CC(C3)C1)C2` [Compound 36, N‐(2‐(((3S,5S,7S)‐adamantan‐1‐yl)amino)‐2‐oxoethyl)‐N‐cyclopropyl‐2‐phenylacetamide], for which, in data set [2], the Emax amounted to 47%. Moreover, in data set [3], the “Activity (agonist/antagonist)” value is given as “Agonist”, the EC50 stood at 4900 ± 1700 nM and the Hill coefficient was found to be 2.3 ± 2.6.

On to `O=C(CN(Cc1ccccc1)C(=O)Cc1ccccc1)NC12CC3CC(CC(C3)C1)C2` [Compound 41, N‐(2‐(((3S,5S,7S)‐adamantan‐1‐yl)amino)‐2‐oxoethyl)‐N‐benzyl‐2‐phenylacetamide], for which the Emax in data set [2] stood at 49%. Moreover, in data set [3], the “Activity (agonist/antagonist)” value was “Agonist”, the EC50 worked out at 900 ± 1100 nM and the Hill coefficient is given as 2.1 ± 1.0.

With `CC(=O)N1CCN(CC(=O)NC23CC4CC(CC(C4)C2)C3)CC1` [Compound 45, 2‐(4‐acetylpiperazin‐1‐yl)‐N‐((3S,5S,7S)‐adamantan‐1‐yl)acetamide], in data set [2], the Emax stood at 54%. In data set [3], the “Activity (agonist/antagonist)” value is given as “Agonist”, the 50% effective concentration (EC50) is 2300 ± 1600 nM and the Hill coefficient is 0.7 ± 2.1.

Take `CC(C)c1ccc(NC(=O)Cn2cnc3c2c(=O)n(C)c(=O)n3C)cc1` [HC030031, 2‐(1,3‐Dimethyl‐2,6‐dioxo‐1,2,3,6‐tetrahydro‐7H‐purin‐7‐yl)‐N‐(4‐isopropylphenyl)acetamide, reference compound]: the “block of hTRPA1‐evoked (AITC) current” value on hTRPA1 was “completely abrogated”.
